US8802597B2, “Herbicidal pyrimidines” (E I du Pont de Nemours and Company, priority 2003, dated 2014)

Columns and labels:
Format in all cases: in vivo
wild oat (Avena fatua) = test: Test B postemergence; settings: for Oat, Wild plant response rating: scale 0 to 100 (0 no effect, 100 complete control); for Plant response rating, Oat, Wild: scale 0 to 100
Outline: (§1)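 Greenhouse whole-plant test; surfactant-containing non-phytotoxic solvent formulation; pre- and postemergence applications made simultaneously; post plants 2–18 cm, 1- to 4-leaf; visual scoring at 13–15 days on 0–100 scale relative to controls.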

[1] = system: blackgrass (Alopecurus myosuroides); test: Test B postemergence; settings: for Blackgrass plant response rating: scale 0 to 100 (0 no effect, 100 complete control); for Plant response rating, Blackgrass: scale 0 to 100
Outline: as §1

[2] = system: duck salad (Heteranthera limosa); test: Test B flooded paddy test; settings: Flood, 1000 g ai/ha; scale 0 to 100
Procedure: (§2) At the same time, plants selected from these crop and weed species and also blackgrass (Alopecurus myosuroides) and wild oat (Avena fatua) were treated with postemergence applications of test chemicals formulated in the same manner. Plants ranged in height from 2 to 18 cm (1- to 4-leaf stage) for postemergence treatments. Plant species in the flooded paddy test consisted of rice (Oryza sativa), umbrella sedge (Cyperus difformis), duck salad (Heteranthera limosa) and barnyardgrass (Echinochloa crus-galli) grown to the 2-leaf stage for testing. Treated plants and controls were maintained in a greenhouse for 13 to 15 days, after which time all species were compared to controls and visually evaluated. Plant response ratings, summarized in Table B, are based on a scale of 0 to 100 where 0 is no effect and 100 is complete control. A dash (-) response means no test result.

[3] = system: umbrella sedge (Cyperus difformis); test: Test B flooded paddy test; settings: Flood, 1000 g ai/ha; scale 0 to 100
Procedure: as §2

rice (Oryza sativa) = test: Test B flooded paddy test; settings: Flood, 1000 g ai/ha; scale 0 to 100
Procedure: as §2

[4] = system: barnyardgrass (Echinochloa crus-galli); test: Test B flooded paddy test; settings: Flood, 1000 g ai/ha; scale 0 (no effect) to 100 (complete control)
Procedure: as §2

[5] = system: velvetleaf (Abutilon theophrasti); test: Test B pre/postemergence
Source text: (§3) Seeds selected from barnyardgrass (Echinochloa crus-galli), Surinam grass (Brachiaria decumbens), cocklebur (Xanthium strumarium), corn (Zea mays), crabgrass (Digitaria sanguinalis), giant foxtail (Setaria faberii), lambsquarters (Chenopodium album), morningglory (Ipomoea coccinea), pigweed (Amaranthus retroflexus), velvetleaf (Abutilon theophrasti), and wheat (Triticum aestivum) were planted and treated preemergence with test chemicals formulated in a non-phytotoxic solvent mixture which included a surfactant.
as §2

[6] = system: wheat (Triticum aestivum); test: Test B pre/postemergence
Source text: as §3, §2

[7] = system: giant foxtail (Setaria faberii); test: Test B pre/postemergence
Source text: as §3, §2

corn (Zea mays) = test: Test B pre/postemergence
Source text: as §3, §2

[8] = system: barnyardgrass (Echinochloa crus-galli); test: Test B pre/postemergence
Source text: as §3, §2

[9] = system: morningglory (Ipomoea coccinea); test: Test B pre/postemergence
Source text: as §3, §2

[10] = system: cocklebur (Xanthium strumarium); test: Test B pre/postemergence
Source text: as §3, §2

[11] = system: lambsquarters (Chenopodium album); test: Test B pre/postemergence
Source text: as §3, §2

[12] = system: pigweed (Amaranthus retroflexus); test: Test B pre/postemergence
Source text: as §3, §2

[13] = system: Surinam grass (Brachiaria decumbens); test: Test B pre/postemergence
Source text: as §3, §2

[14] = system: crabgrass (Digitaria sanguinalis); test: Test B pre/postemergence
Source text: as §3, §2

[15] = Postemergence, 125 g ai/ha, scale 0 to 100 (0 no effect, 100 complete control)
[16] = Postemergence, 500 g ai/ha, scale 0 to 100
[17] = Preemergence, 125 g ai/ha, scale 0 to 100 (0 no effect, 100 complete control)
[18] = Preemergence, 500 g ai/ha, scale 0 to 100 (0 no effect, 100 complete control)
[19] = Postemergence, 62 g ai/ha, scale 0 to 100 (0 no effect, 100 complete control)
[20] = Postemergence, 250 g ai/ha, scale 0 to 100
[21] = Preemergence, 62 g ai/ha, scale 0 to 100, 0 no effect, 100 complete control
[22] = Preemergence, 250 g ai/ha, scale 0 to 100 (0 no effect, 100 complete control)

CCOC(=O)Cc1nc(-c2ccc(Cl)cc2)nc(N)c1Br [Compound 41]
Oat, Wild plant response rating (wild oat (Avena fatua); 125 g ai/ha): 0 | Plant response rating, Oat, Wild (wild oat (Avena fatua); 500 g ai/ha): 0 | Blackgrass plant response rating ([1]; 125 g ai/ha): 20 | Plant response rating, Blackgrass ([1]; 500 g ai/ha): 60 | Plant response rating, Ducksalad [2]: 90 | Plant response rating, Sedge, Umbrella [3]: 80 | Plant response rating, Rice (rice (Oryza sativa)): 0 | Plant response rating, Barnyardgrass [4]: 0 | Velvetleaf plant response rating [5, 15]: 50 | Plant response rating, Velvetleaf [5, 16]: 70 | Plant response rating, Velvetleaf [5, 17]: 10 | Velvetleaf plant response rating [5, 18]: 30 | Wheat plant response rating [6, 15]: 30 | Plant response rating, Wheat [6, 16]: 40 | Plant response rating, Wheat [6, 17]: 0 | Plant response rating, Wheat [6, 18]: 20 | Foxtail, Giant plant response rating [7, 15]: 20 | Plant response rating, Foxtail, Giant [7, 16]: 30 | Plant response rating, Foxtail, Giant [7, 17]: 0 | Foxtail, Giant plant response rating [7, 18]: 0 | Corn plant response rating (corn (Zea mays); [15]): 20 | Plant response rating, Corn (corn (Zea mays); [16]): 80 | Plant response rating, Corn (corn (Zea mays); [17]): 0 | Corn plant response rating (corn (Zea mays); [18]): 0 | Barnyardgrass plant response rating [8, 15]: 20 | Plant response rating, Barnyardgrass [8, 16]: 70 | Plant response rating, Barnyardgrass [8, 17]: 0 | Barnyardgrass plant response rating [8, 18]: 10 | Morningglory plant response rating [9, 15]: 70 | Plant response rating, Morningglory [9, 16]: 90 | Plant response rating, Morningglory [9, 17]: 0 | Morningglory plant response rating [9, 18]: 20 | Cocklebur plant response rating [10, 15]: 70 | Plant response rating, Cocklebur [10, 17]: 0 | Cocklebur plant response rating [10, 18]: 10 | Lambsquarters plant response rating [11, 15]: 80 | Plant response rating, Lambsquarters [11, 16]: 90 | Plant response rating, Lambsquarters [11, 17]: 30 | Lambsquarters plant response rating [11, 18]: 60 | Pigweed plant response rating [12, 15]: 70 | Plant response rating, Pigweed [12, 16]: 90 | Plant response rating, Pigweed [12, 17]: 0 | Pigweed plant response rating [12, 18]: 60 | Surinam Grass plant response rating [13, 15]: 0 | Plant response rating, Surinam Grass [13, 16]: 10 | Surinam Grass plant response rating [13, 18]: 0 | Crabgrass plant response rating [14, 15]: 10 | Plant response rating, Crabgrass [14, 16]: 20 | Plant response rating, Crabgrass [14, 17]: 0 | Crabgrass plant response rating [14, 18]: 20

CCOC(OCC)c1nc(C2CC2)nc(N)c1Br [Compound 45]
Oat, Wild plant response rating (wild oat (Avena fatua); 62 g ai/ha): 0 | Plant response rating, Oat, Wild (wild oat (Avena fatua); 250 g ai/ha): 0 | Blackgrass plant response rating ([1]; 62 g ai/ha): 0 | Plant response rating, Blackgrass ([1]; 250 g ai/ha): 0 | Plant response rating, Ducksalad [2]: 0 | Plant response rating, Sedge, Umbrella [3]: 0 | Plant response rating, Rice (rice (Oryza sativa)): 0 | Plant response rating, Barnyardgrass [4]: 0 | Velvetleaf plant response rating [5, 19]: 0 | Plant response rating, Velvetleaf [5, 20]: 20 | Plant response rating, Velvetleaf [5, 21]: 0 | Plant response rating, Velvetleaf [5, 22]: 0 | Wheat plant response rating [6, 19]: 0 | Plant response rating, Wheat [6, 20]: 0 | Plant response rating, Wheat [6, 21]: 0 | Plant response rating, Wheat [6, 22]: 0 | Foxtail, Giant plant response rating [7, 19]: 0 | Plant response rating, Foxtail, Giant [7, 20]: 0 | Plant response rating, Foxtail, Giant [7, 21]: 0 | Plant response rating, Foxtail, Giant [7, 22]: 0 | Corn plant response rating (corn (Zea mays); [19]): 0 | Plant response rating, Corn (corn (Zea mays); [20]): 0 | Plant response rating, Corn (corn (Zea mays); [21]): 0 | Barnyardgrass plant response rating [8, 19]: 0 | Plant response rating, Barnyardgrass [8, 20]: 0 | Plant response rating, Barnyardgrass [8, 21]: 0 | Plant response rating, Barnyardgrass [8, 22]: 0 | Morningglory plant response rating [9, 19]: 40 | Plant response rating, Morningglory [9, 20]: 60 | Plant response rating, Morningglory [9, 21]: 30 | Plant response rating, Morningglory [9, 22]: 50 | Cocklebur plant response rating [10, 19]: 0 | Plant response rating, Cocklebur [10, 20]: 10 | Plant response rating, Cocklebur [10, 22]: 0 | Lambsquarters plant response rating [11, 19]: 10 | Plant response rating, Lambsquarters [11, 20]: 30 | Plant response rating, Lambsquarters [11, 21]: 0 | Plant response rating, Lambsquarters [11, 22]: 30 | Pigweed plant response rating [12, 19]: 30 | Plant response rating, Pigweed [12, 20]: 50 | Plant response rating, Pigweed [12, 21]: 0 | Plant response rating, Pigweed [12, 22]: 50 | Surinam Grass plant response rating [13, 19]: 0 | Plant response rating, Surinam Grass [13, 20]: 0 | Plant response rating, Surinam Grass [13, 21]: 0 | Plant response rating, Surinam Grass [13, 22]: 0 | Crabgrass plant response rating [14, 19]: 0 | Plant response rating, Crabgrass [14, 20]: 20 | Plant response rating, Crabgrass [14, 21]: 0 | Plant response rating, Crabgrass [14, 22]: 0

COC(OC)c1nc(C2CC2)nc(N)c1F [Compound 46]
Oat, Wild plant response rating (wild oat (Avena fatua); 125 g ai/ha): 0 | Plant response rating, Oat, Wild (wild oat (Avena fatua); 500 g ai/ha): 0 | Blackgrass plant response rating ([1]; 125 g ai/ha): 0 | Plant response rating, Blackgrass ([1]; 500 g ai/ha): 10 | Plant response rating, Ducksalad [2]: 60 | Plant response rating, Sedge, Umbrella [3]: 30 | Plant response rating, Rice (rice (Oryza sativa)): 0 | Plant response rating, Barnyardgrass [4]: 0 | Velvetleaf plant response rating [5, 15]: 0 | Plant response rating, Velvetleaf [5, 16]: 0 | Plant response rating, Velvetleaf [5, 17]: 0 | Velvetleaf plant response rating [5, 18]: 20 | Wheat plant response rating [6, 15]: 0 | Plant response rating, Wheat [6, 16]: 0 | Plant response rating, Wheat [6, 17]: 0 | Plant response rating, Wheat [6, 18]: 20 | Foxtail, Giant plant response rating [7, 15]: 0 | Plant response rating, Foxtail, Giant [7, 16]: 10 | Plant response rating, Foxtail, Giant [7, 17]: 0 | Foxtail, Giant plant response rating [7, 18]: 50 | Corn plant response rating (corn (Zea mays); [15]): 0 | Plant response rating, Corn (corn (Zea mays); [16]): 0 | Plant response rating, Corn (corn (Zea mays); [17]): 0 | Corn plant response rating (corn (Zea mays); [18]): 0 | Barnyardgrass plant response rating [8, 15]: 0 | Plant response rating, Barnyardgrass [8, 16]: 30 | Plant response rating, Barnyardgrass [8, 17]: 0 | Barnyardgrass plant response rating [8, 18]: 0 | Morningglory plant response rating [9, 15]: 80 | Plant response rating, Morningglory [9, 16]: 90 | Plant response rating, Morningglory [9, 17]: 50 | Morningglory plant response rating [9, 18]: 90 | Cocklebur plant response rating [10, 15]: 0 | Plant response rating, Cocklebur [10, 16]: 0 | Plant response rating, Cocklebur [10, 17]: 0 | Cocklebur plant response rating [10, 18]: 40 | Lambsquarters plant response rating [11, 15]: 10 | Plant response rating, Lambsquarters [11, 16]: 30 | Plant response rating, Lambsquarters [11, 17]: 10 | Lambsquarters plant response rating [11, 18]: 60 | Pigweed plant response rating [12, 15]: 70 | Plant response rating, Pigweed [12, 16]: 80 | Plant response rating, Pigweed [12, 17]: 80 | Pigweed plant response rating [12, 18]: 90 | Surinam Grass plant response rating [13, 15]: 0 | Plant response rating, Surinam Grass [13, 16]: 10 | Plant response rating, Surinam Grass [13, 17]: 0 | Surinam Grass plant response rating [13, 18]: 40 | Crabgrass plant response rating [14, 15]: 10 | Plant response rating, Crabgrass [14, 16]: 30 | Plant response rating, Crabgrass [14, 17]: 0 | Crabgrass plant response rating [14, 18]: 40
